Patent publication US20140272041A1, “METHODS OF REDUCING PATHOGENS DURING PROCESSING OR POST-PROCESSING OF BEEF, POULTRY AND OTHER MEAT PRODUCTS” (BIRKO Corporation, priority 2009, published 2014)

Columns and labels:
Assay type in all cases: cell-based, Escherichia coli
[1] = system: E. coli ATCC 12435; experiment: Log kill / surviving titer in aqueous bacterial suspension, plating on TSA; conditions: for Log Kill (Lactic Acid + Surfactant): 15 seconds, 74 to 80 degrees F.; for Log Kill (TSA): lactic acid alone, plated on TSA
Procedure: The “reaction” (i.e. interaction of antimicrobial agent and the target organism) was initiated by the addition of bacteria to the antimicrobial solution. The reaction was allowed to proceed for the respective time periods listed in Table I (i.e., at least 15 seconds each) and was terminated at the end of that time by adding quench buffer comprising 3.2 M potassium phosphate buffer, pH 7.2. The sample then was evaluated using serial 10-fold dilutions into sterile phosphate buffer as needed to determine, on Tryptic Soy agar (“TSA”), the titer of surviving bacteria. TSA is a medium that allows the growth of most bacteria.
The reduction in the bacterial count is expressed as the “log kill” which is defined as log10 [initial cfu/ml]−log10 [remaining cfu/ml]; where “cfu” refers to “colony forming unit.” All log kills reported herein are positive “base 10.”). Inasmuch as the standard assay mixture contained only ca. 25×10^6 cfu initially (equivalent to 7.398 log) the theoretical maximum kill that can be measured with this assay system is ca. 7.4 log and the practical measuring limit is ca. 6 log. Therefore, high levels of log reduction were monitored by plating reaction mixtures directly (without dilution) onto agar medium. The results are reported in Table I and illustrated in graph format in FIG. 1. […] The tests were replicated with E. coli ATCC 43888, a pathogenic strain of E. coli O157:H7. […]
After incubation for 15 seconds at ambient temperature the reaction was quenched by addition of phosphate buffer and the titer of surviving bacteria was determined by plating on TSA as described in the previous examples. […] The amphoteric and zwitterionic surfactants, which carry a net positive charge under the conditions of the reaction mixture, caused enhancement of the log kill by lactic acid. All anionic surfactants tested caused substantial enhancement of the log kill by lactic acid.

[2] = system: E. coli SAC-2; experiment: as above; conditions: for Log Kill (TSA): lactic acid alone, plated on TSA; for Log Kill (Lactic Acid + Surfactant): surfactant 0.2% in 2.5% lactic acid
Procedure: In each instance a target sample was employed using approximately 50 micro liters of an SAC-2 culture. E. coli “SAC-2,” was a Gram-negative strain isolated from municipal sewage. The tests were performed at room temperature, i.e., 75 deg. F. […] The results of each test sample were evaluated using a series of 10-fold dilutions as needed to determine, on a standard plating agar (TSA), the titer of bacteria that survived the antimicrobial treatment.
The same procedure was employed as in Example 2, but the only agent added to the target solution was Niaproof 08. No lactic acid was employed.
The mixture was then diluted and plated as previously described.
Increasing amounts of reagent were added to a series of test tubes. […] The bacterial titer of each mixture was determined by preparation and plating of serial dilutions on TSA.
[…] […] The amphoteric and zwitterionic surfactants, which carry a net positive charge under the conditions of the reaction mixture, caused enhancement of the log kill by lactic acid. All anionic surfactants tested caused substantial enhancement of the log kill by lactic acid.

[3] = system: E. coli ATCC 14235; experiment: Log kill in aqueous bacterial suspension, plating on TSA; conditions: lactic acid alone, ca. 75 deg. F.
Procedure: The tests were performed at ambient temperature (ca. 75 deg. F.). The “reaction” (i.e. interaction of antimicrobial agent and the target organism) was initiated by the addition of bacteria to the antimicrobial solution. The reaction was allowed to proceed for the respective time periods listed in Table I (i.e., at least 15 seconds each) and was terminated at the end of that time by adding quench buffer comprising 3.2 M potassium phosphate buffer, pH 7.2. The sample then was evaluated using serial 10-fold dilutions into sterile phosphate buffer as needed to determine, on Tryptic Soy agar (“TSA”), the titer of surviving bacteria. TSA is a medium that allows the growth of most bacteria.
The reduction in the bacterial count is expressed as the “log kill” which is defined as log10 [initial cfu/ml]−log10 [remaining cfu/ml]; where “cfu” refers to “colony forming unit.” All log kills reported herein are positive “base 10.”). Inasmuch as the standard assay mixture contained only ca. 25×10^6 cfu initially (equivalent to 7.398 log) the theoretical maximum kill that can be measured with this assay system is ca. 7.4 log and the practical measuring limit is ca. 6 log. Therefore, high levels of log reduction were monitored by plating reaction mixtures directly (without dilution) onto agar medium. The results are reported in Table I and illustrated in graph format in FIG. 1. […] The tests were replicated with E. coli ATCC 43888, a pathogenic strain of E. coli O157:H7.

[4] = system: E. coli ATCC 43888; experiment: Reaction mixture streak plate, visual observation; conditions: 2.5 wt. % lactic acid only (Niaproof 08 0), room temperature
Procedure: The tests were performed at room temperature.

[5] = system: E. coli SAC-2; experiment: Lactic acid treatment followed by contact with surfactant (bile salts) on VRBA; conditions: quenched, then plated on VRBA (bile salts, neutral pH)
Procedure: (§1) VRBA was designed for the enumeration of coliform bacteria by selecting against most other common bacteria. The principal difference between TSA and VRBA—besides the presence of indicator dyes in VRBA—is the inclusion of bile salts in the VRBA. Historically, bile salts were added to media used to culture intestinal bacteria in order to mimic the intestinal environment more closely. Bile salts also happen to be anionic surfactants.
(§2) Plating of serial dilutions of E. coli SAC-2 made in dilute phosphate buffer (pH 7.2) on VRBA was completed in less than 15 minutes after termination of individual reaction mixtures by addition of quench buffer (phosphate, pH 7.2). Thus, contact with the surfactant in VRBA was made in less than 15 minutes and more than 8 minutes after reaction termination.

[6] = system: E. coli ATTC 12435; experiment: as above; conditions: quenched, then plated on VRBA (bile salts, neutral pH)
Procedure: as §1, §2
The observations were confirmed with E. coli ATTC 12435 as follows: […]

[7] = system: E. coli ATCC 43888 (O157:H7); experiment: Log kill in aqueous bacterial suspension, plating on TSA; conditions: for Lactic Acid (Log Kill): 2.5% lactic acid, 73 deg. F.; for Log Kill: lactic acid alone, ca. 75 deg. F., TSA
[8] = surfactant 0.2% in 2.5% lactic acid
[9] = 2.5 wt. % lactic acid only (Niaproof 08 0.00)
[10] = 15 seconds, 74 to 80 degrees F.

Compound: CCCCCCCCS(=O)(=O)[O-].[Na+] [Bioterge PAS-8S, sodium octane sulfonate]
- Log Kill (Lactic Acid + Surfactant) [1, 8]: 6.31 log

Compound: CC(O)C(=O)O (centres unmarked) [Lactic Acid, lactic acid, reference compound]
- Log Kill (Lactic Acid) ([2]; 2.5% lactic acid only, paired control of the surfactant in that line, 15 seconds, 74 to 80 degrees F.): 0.083 log
- Enhancement Factor (log10 kill with lactic acid and surfactant divided by log10 kill with lactic acid only) [2, 9]: 1.00
- Log Kill ([2]; 2.5 wt. % lactic acid only (Niaproof 08 0.00), 15 seconds, room temperature): 0.456 log
- Log Kill […] Lactic Acid ([2]; […] lactic acid only (Niaproof 08 0.00), 15 seconds, 75 degrees F.): 0.336 log
- Log Kill (TSA) ([2]; 15 secs): 0.188 log
- Log Kill (TSA) ([2]; 30 secs): 0.439 log
- Log Kill (TSA) ([2]; 45 secs): 0.801 log
- Log Kill ([3]; 15 secs): 1.431 log
- Log Kill ([3]; 30 secs): 2.217 log
- Log Kill ([3]; 45 secs): 3.246 log
- Log Kill ([3]; 60 secs): 3.722 log
- Log Kill (Lactic Acid) ([1]; 2.5% lactic acid only, paired control of Niaproof 08, 15 seconds, 83 degrees F.): 2.28 log
- Enhancement Factor [1, 9]: 1.0
- Log Kill [1, 9]: 2.283 log
- Log Kill (TSA) ([1]; 15 secs): 1.431 log
- Log Kill (TSA) ([1]; 30 secs): 2.217 log
- Log Kill (TSA) ([1]; 45 secs): 3.246 log
- Log Kill (TSA) ([1]; 60 secs): 3.722 log
- Description/Observation [4]: Extensive bacterial growth.
- Log Kill (VRBA) ([5]; lactic acid 15 secs): 0.509 log
- Log Kill (VRBA) ([5]; lactic acid 30 secs): 2.812 log
- Log Kill (VRBA) ([5]; lactic acid 45 secs): 3.330 log
- Log Kill (VRBA) ([6]; lactic acid 15 secs): 5.328 log
- Log Kill (VRBA) ([6]; lactic acid 30 secs): 5.328 log
- Log Kill (VRBA) ([6]; lactic acid 45 secs): 5.328 log
- Log Kill (VRBA) ([6]; lactic acid 60 secs): 5.328 log
- in 2.5% Lactic Acid (Log Kill) ([7]; 2.5% lactic acid only (sodium lauryl sulfate 0)): 2.2 log
- Lactic Acid (Log Kill) ([7]; pH 2.19, 20 secs.): 2.44 log
- Lactic Acid (Log Kill) ([7]; pH 2.42, 20 secs.): 2.71 log
- Lactic Acid (Log Kill) ([7]; pH 2.59, 20 secs.): 1.81 log
- Lactic Acid (Log Kill) ([7]; pH 2.74, 20 secs.): 1.21 log
- Lactic Acid (Log Kill) ([7]; pH 2.86, 20 secs.): 0.732 log
- Lactic Acid (Log Kill) ([7]; pH 3.24, 20 secs.): 0.117 log
- Lactic Acid (Log Kill) ([7]; pH 3.67, 20 secs.): 0.041 log
- in […] Lactic Acid (Log Kill) ([7]; […] lactic acid only (sodium lauryl sulfate 0), 15 seconds, 75 degrees F.): 0.403 log
- Log Kill ([7]; 15 secs): 1.24 log
- Log Kill ([7]; 30 secs): 1.76 log
- Log Kill ([7]; 45 secs): 1.89 log
- Log Kill ([7]; 60 secs): 2.63 log

Compound: CCCCC(CC)COC(=O)CC(C(=O)OCC(CC)CCCC)S(=O)(=O)[O-].[Na+] (centres unmarked) [Sodium dioctyl sulfosuccinate]
- Log Kill (Lactic Acid + Surfactant) [1, 8]: 6.67 log

Compound: Polyoxyethylene (20) sorbitan monooleate [Tween 80]
- Log Kill (Lactic Acid + Surfactant) [2, 10]: 0.18 log

Compound: coco amidoalkyl betaine [Norfox CAPB]
- Log Kill (Lactic Acid + Surfactant) ([1]; 0.1% CAPB in 2.5% lactic acid): 6.25 log

Compound: coconut based imidazoline, dicarboxylate, sodium salt [Amphoterge K2]
- Log Kill (Lactic Acid + Surfactant) [1, 8]: 2.86 log

Compound: ethoxylated nonylphenol [T-Det N 9.5]
- Log Kill (Lactic Acid + Surfactant) [2, 10]: 0.18 log

Compound: phosphate ester of polyoxyalkylated fatty alcohol [Klearfac AA270]
- Log Kill (Lactic Acid + Surfactant) [2, 10]: 2.56 log
- Log Kill (Lactic Acid + Surfactant) [1, 8]: 6.31 log
